Experimental data: patent publication US20260198495A1, “BINARY INSECTICIDE COMPOSITION AND USE THEREOF” (SHENYANG SINOCHEM AGROCHEMICALS R & D CO., LTD., priority 2022, published 2026)
In brackets after ≈: the same amount, converted by molar mass.

Columns and labels:
Type in all cases: in vivo
[1] = tested on: adult Tetranychus cinnabarinus (Boisduval); experiment: Joint toxicity of I-72 + fenpropathrin, Example 39, Table 39; details: 72 h
Procedure: Test target: adult Tetranychus cinnabarinus (Boisduval), a sensitive strain reared indoors.
(§1) Preparation of the pesticide solution: according to different test requirements, the test samples were accurately weighed respectively with an electronic analytical balance. The technical pesticides were dissolved in acetone, and then diluted with 0.1% Tween 80 water into a series of pesticide solutions with a certain concentration gradient according to the experimental design dosage.
Experimental method: the activity of the mixture against the adult Tetranychus cinnabarinus (Boisduval) was determined by adopting the potted-seedling spraying method. First, the adult Tetranychus cinnabarinus of uniform size were transferred onto the leaves of kidney bean seedlings at the stage when the first pair of true leaves was fully expanded. After the adult mites had stabilized, the base number was counted. Then, the uniform spraying was performed with the pesticide solution in the order from low to high dose according to the experimental design, with 1.5 mL for each seedling and 3 replicates for each treatment. […]
(§2) The treated test materials were placed in an observation room, and the temperature, humidity and illumination of the observation room could be adjusted as needed. […] Then, the co-toxicity coefficient of each ratio was calculated using the Sun Y-P method to evaluate the mixing effect, as in Example 1.

[2] = tested on: 3rd-instar larvae of Ostrinia furnacalis Guenee; experiment: Joint toxicity of I-72 + lambda-cyhalothrin, Example 42, Table 42; details: in Zea mays, 72 h
Procedure: Test target: 3rd-instar larvae of Ostrinia furnacalis Guenee.
as §1
(§3) Experimental method: first, tender corn stems were selected and dipped in the prepared pesticide solution for 10 s in the order from low dosage to high dosage according to the experimental design. After natural air-drying in the shade, they were placed in a 9-cm-diameter Petri dish with filter paper, and uniform and healthy test insects were introduced, with 10 insects for each treatment and 3 replicates for each treatment. In addition, a blank control was set up.
as §2, with “needed. The number of dead and live insects was investigated 72 hours later.” for “needed.”, “effect (the same” for “effect,”, “1).” for “1.”

[3] = tested on: adult Tetranychus urticae Koch; experiment: Joint toxicity of I-72 + spirobudifen, Example 29, Table 29; details: 72 h
Procedure: as §1
In addition, a blank control was set up.
The treated test materials were placed in an observation room, and the temperature, humidity and illumination of the observation room could be adjusted as needed.

[4] = tested on: Thrips flavus Schrank nymphs; experiment: Joint toxicity of I-72 + spirotetramat, Example 26, Table 26; details: in Solanum melongena, 48 h
Procedure: Test target: Thrips flavus Schrank nymphs.
as §1
Experimental method: first, eggplant seedlings with Thrips flavus Schrank were selected, and the base number was counted. Then, uniform spraying was performed with the pesticide solution in the order from low to high doses according to the experimental design, with 2 mL for each seedling and 3 replicates for each treatment. In addition, a blank control was set up.
as §2, with “needed. The number of dead and live insects was investigated 48 hours later.” for “needed.”, “effect (the same” for “effect,”, “1).” for “1.”

[5] = tested on: Unaspis yanonensis Kuwana nymphs; experiment: whole plant or invertebrate; details: foliar, 120 h
Procedure: Test target: Unaspis yanonensis Kuwana nymphs.
as §1
Experimental method: the activity of the mixture against Unaspis yanonensis Kuwana nymphs on citrus was determined by adopting the dipping method. First, the collected citrus leaves with Unaspis yanonensis Kuwana nymphs were treated with the pesticide solution in the order from low dosage to high dosage according to the experimental design. After air-drying, the petioles were kept moist with degreased cotton, and then the leaves were placed in a Petri dish, with 3 replicates for each treatment. In addition, a blank control was set up.
The treated test materials were placed in an observation room, and the temperature, humidity and illumination of the observation room could be adjusted as needed. The number of dead and live insects was investigated 120 hours later.

[6] = tested on: 2nd-instar larvae of Mythimna separata; experiment: Joint toxicity of I-72 + beta-cyfluthrin, Example 41, Table 41; details: A = compound I-72, B = beta-cyfluthrin; corn leaf dipping; 72 hours
Procedure: Test target: 2nd-instar larvae of Mythimna separata.
as §1
as §3, with “first,” for “first, tender”, “leaves” for “stems”
as §2, with “needed. The number of dead and live insects was investigated 72 hours later.” for “needed.”, “effect (the same” for “effect,”, “1).” for “1.”

[7] = tested on: adult Phyllotreta striolata (Walker); experiment: Joint toxicity of I-72 + rotenone, insect dipping, Example 35, Table 35
From the text: Test target: adult Phyllotreta striolata (Walker), a strain reared indoors.
Experimental method: the dipping method was adopted. Adult flea beetles of uniform size were put into an insect-dipping cage and dipped for 10 s in the order from low dosage to high dosage according to the experimental design, with 30 beetles for each treatment. The beetles were placed in a 9-cm-diameter Petri dish with filter paper, with 3 replicates for each treatment. In addition, a blank control was set up. The treated test materials were placed in an observation room, and the temperature, humidity and illumination of the observation room could be adjusted as needed.
(§4) The test conditions, the preparation of the pesticide solution and the evaluation method were the same as those in Example 1.

[8] = tested on: mixed aphids of Myzus persicae (Sulzer); experiment: Joint toxicity of I-72 + matrine, Example 34, Table 34; details: in Brassica oleracea, 48 h
From the text: Test subject: mixed aphids of Myzus persicae (Sulzer), a sensitive strain reared indoors.
Experimental method: the spraying method on leaves with aphids was adopted. Cabbage leaves with a certain number of Myzus persicae (Sulzer) were taken. The prepared pesticide solutions were evenly sprayed on both the front and back sides of the leaves in the order from low concentration to high concentration according to the experimental design. Then, the leaves were placed in a 6-cm-diameter Petri dish with filter paper. After natural air-drying in the shade, they were placed in the observation room. The experiment had 3 replicates set, and in addition, a blank control was set up. The number of dead and live insects was investigated 48 hours later. The corrected mortality rate was calculated using the Abbott's formula, and the DPS data processing software was used for statistical analysis to calculate the toxicities (LC50 values) of the single test pesticides and the mixtures under the test ratios.
as §4

[9] = tested on: Bemisia tabaci (Gennadius) nymphs; experiment: Joint toxicity of I-72 + bifenthrin, Example 40, Table 40; details: in Gossypium hirsutum, 96 h
Procedure: Test target: Bemisia tabaci (Gennadius) nymphs, a sensitive strain reared indoors.
as §1
(§5) Experimental method: first, cotton leaves with neat and consistent Bemisia tabaci (Gennadius) nymphs were selected and made into leaf disks, with about 20 insects on each leaf disk. Then, they were evenly sprayed with the pesticide solution in the order from low dosage to high dosage according to the experimental design, with 1.5 mL for each leaf and 3 replicates for each treatment. In addition, a blank control was set up.
as §2, with “needed. The number of dead and live insects was investigated 96 hours later.” for “needed.”, “effect (the same” for “effect,”, “1).” for “1.”

[10] = tested on: 2nd-instar larvae of Chilo suppressalis (Walker); experiment: Joint toxicity of I-72 + azadirachtin, Example 36, Table 36; details: in Oryza sativa, 72 h
From the text: Test target: 2nd-instar larvae of Chilo suppressalis (Walker). The insect source was collected from Nanchang, Jiangxi Province, and it is the 11th generation continuously cultured indoors, with a relatively high resistance level to amide pesticides such as chlorantraniliprole.
Experimental method: the spraying method was adopted. Rice stalks with the same length and thickness were selected, cut into the same length, and evenly sprayed with the pesticide solution in the order from low dosage to high dosage according to the experimental design, with 1.5 mL of the pesticide solution for each treatment. The stalks were placed in a 6-cm-diameter Petri dish with filter paper. After natural air-drying in the shade, uniform and healthy test insects were introduced, with 10 insects for each treatment and 4 replicates for each treatment. In addition, a blank control was set up. The number of dead and live insects was investigated 72 hours later. The corrected mortality rate was calculated using the Abbott's formula, and the DPS data processing software was used for statistical analysis to calculate the toxicities (LC50 values) of the single test pesticides and the mixtures under the test ratios.
as §4

[11] = tested on: Nilaparvata lugens (Stal) nymphs; experiment: Joint toxicity of I-72 + etofenprox, Example 44, Table 44; details: in Oryza sativa, 72 h
Procedure: Test target: Nilaparvata lugens (Stal) nymphs, a sensitive strain reared indoors.
as §1
Experimental method: the activity of the mixture against the Nilaparvata lugens (Stal) nymphs was determined by adopting the potted-seedling spraying method. First, rice seedlings were planted in culture pots. Uniform spraying was performed with the pesticide solution in the order from low dosage to high dosage according to the experimental design, with 2 mL for each seedling. Then, Nilaparvata lugens nymphs of uniform size were transferred onto the rice seedlings, with 3 replicates for each treatment. In addition, a blank control was set up.
as §2, with “needed. The number of dead and live insects was investigated 72 hours later.” for “needed.”, “effect (the same” for “effect,”, “1).” for “1.”

[12] = tested on: second-instar larvae of Meloidogyne incognita; experiment: In vitro joint toxicity of I-72 + fluopyram, 24-well plate, Example 32, Table 32; details: 48 h
Procedure: Test target: second-instar larvae of Meloidogyne incognita, a sensitive strain reared in a greenhouse.
as §1
Experimental method: the prepared pesticide solutions were added to a 24-well plate in the order from low dosage to high dosage according to the experimental design. In each well of each treatment, 50 nematodes were placed. Each drug had 5 concentrations set, with 3 replicates. After the treatment, the 24-well plate was placed in a constant temperature incubator at 25° C. In addition, a blank control group was set up. The number of dead and live insects was investigated 48 hours later. […] Then, the co-toxicity coefficient of each ratio was calculated using the Sun Y-P method to evaluate the mixing effect (the same as in Example 1).

[13] = tested on: adult Phyllotreta vittuta Fabr.; experiment: Joint toxicity of I-72 + deltamethrin, Example 45, Table 45; details: 72 h
Procedure: Test target: adult Phyllotreta vittuta Fabr.
as §1
Experimental method: first, uniform and consistent potted cabbage seedlings were selected. Then, uniform spraying was performed with the pesticide solution in the order from low dosage to high dosage according to the experimental design. After air-drying in the shade, adult flea beetles were transferred onto the treated cabbage seedlings, and then glass covers were put on them, with about 30-40 adult flea beetles on each seedling and 3 replicates for each treatment. In addition, a blank control was set up.
as §2, with “needed. The number of dead and live insects was investigated 72 hours later.” for “needed.”, “effect (the same” for “effect,”, “1).” for “1.”

[14] = tested on: Aphis gossypii Glover nymphs; experiment: Joint toxicity of I-72 + spiropidion, Example 28, Table 28; details: A = compound I-72, B = spiropidion; cotton leaf spraying; 48 hours
Procedure: Test target: Aphis gossypii Glover nymphs, a sensitive strain reared indoors.
as §1
as §5, with “uniform” for “neat”, “Aphis gossypii” for “Bemisia tabaci (Gennadius) nymphs”, “selected,” for “selected and made into leaf disks,”, “30-40” for “20”, “leaf.” for “leaf disk.”
as §2, with “needed. The number of dead and live insects was investigated 48 hours later.” for “needed.”, “effect (the same” for “effect,”, “1).” for “1.”

[15] = tested on: 2nd-instar larvae of Plutella xylostella; experiment: Joint toxicity of I-72 + spiropidion, Example 31, Table 31; details: A = compound I-72, B = spiropidion; cabbage leaf dipping; 72 hours
Procedure: Test target: 2nd-instar larvae of Plutella xylostella.
as §1
as §3, with “cabbage leaves” for “tender corn stems”
as §2, with “needed. The number of dead and live insects was investigated 72 hours later.” for “needed.”, “effect (the same” for “effect,”, “1).” for “1.”

## CC1(C)C(C(=O)OC(C#N)c2cccc(Oc3ccccc3)c2)C1(C)C (stereo not drawn) [fenpropathrin]
[1]
  LC50: 5.52 µg/mL

## CC1(C)[C@H](C(=O)O[C@H](C#N)c2cccc(Oc3ccccc3)c2)[C@@H]1/C=C(\Cl)C(F)(F)F (racemic) [lambda-cyhalothrin]
[2]
  LC50: 1.83 µg/mL

## CCOC(=O)OC1=C(c2cc(C)ccc2C)C(=O)N[C@]12CC[C@@H](OC)CC2 [spirotetramat]
[3]
  LC50: 8.2 µg/mL
[4]
  LC50: 12.3 µg/mL
[5]
  LC50: 8.91 µg/mL (≈ 23.9 µM)

## CC1(C)C(C=C(Cl)Cl)C1C(=O)OC(C#N)c1ccc(F)c(Oc2ccccc2)c1 (stereo not drawn) [beta-cyfluthrin]
[6]
  LC50: 1.0438 µg/mL

## C=C(C)[C@H]1Cc2c(ccc3c2O[C@@H]2COc4cc(OC)c(OC)cc4[C@@H]2C3=O)O1 [rotenone]
[7]
  LC50: 19.5 µg/mL

## O=C1CCC[C@@H]2[C@H]3CCCN4CCC[C@@H](CN12)[C@@H]34 [matrine]
[8]
  LC50: 3.24 µg/mL

## Cc1c(COC(=O)[C@@H]2[C@H](/C=C(\Cl)C(F)(F)F)C2(C)C)cccc1-c1ccccc1 (racemic) [bifenthrin]
[9]
  LC50: 62.4 µg/mL

## C/C=C(\C)C(=O)O[C@H]1C[C@@H](OC(C)=O)[C@@]2(C(=O)OC)CO[C@H]3[C@@H](O)[C@@](C)([C@]45O[C@@]4(C)[C@H]4C[C@@H]5O[C@@H]5OC=C[C@@]54O)[C@H]4[C@]1(CO[C@]4(O)C(=O)OC)[C@@H]32 [azadirachtin]
[10]
  LC50: 22.5 µg/mL

## CCOc1ccc(C(C)(C)COCc2cccc(Oc3ccccc3)c2)cc1 [etofenprox]
[11]
  LC50: 25.4 µg/mL

## O=C(NCCc1ncc(C(F)(F)F)cc1Cl)c1ccccc1C(F)(F)F [fluopyram]
[12]
  LC50: 0.609 µg/mL

## CC1(C)[C@H](C(=O)O[C@H](C#N)c2cccc(Oc3ccccc3)c2)[C@@H]1C=C(Br)Br [deltamethrin]
[13]
  LC50: 6.76 µg/mL

## CCOC(=O)OC1=C(c2c(C)cc(Cl)cc2C)C(=O)N(C)C12CCN(OC)CC2 [spiropidion]
[14]
  LC50: 4.8686 µg/mL
[15]
  LC50: 631.4873 µg/mL
